pIC50: −log10 of the molar value.

Test [1] concerns the target T1, Endothelin-1 receptor (Homo sapiens, UniProt P25101).
T1 sequence (P25101 whole entry): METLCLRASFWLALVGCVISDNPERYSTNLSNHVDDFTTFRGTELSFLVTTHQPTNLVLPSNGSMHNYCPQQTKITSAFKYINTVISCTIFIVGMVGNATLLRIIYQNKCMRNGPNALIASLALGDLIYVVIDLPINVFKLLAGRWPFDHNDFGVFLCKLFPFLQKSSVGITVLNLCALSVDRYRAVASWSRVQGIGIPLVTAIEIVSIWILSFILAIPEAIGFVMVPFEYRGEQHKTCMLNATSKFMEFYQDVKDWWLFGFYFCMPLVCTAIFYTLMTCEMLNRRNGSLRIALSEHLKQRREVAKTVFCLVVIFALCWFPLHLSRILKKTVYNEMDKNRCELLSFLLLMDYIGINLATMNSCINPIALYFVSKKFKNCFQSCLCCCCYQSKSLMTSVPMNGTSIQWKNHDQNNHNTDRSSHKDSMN
Briefly: Functional inhibition of ET-1 induced [Ca2+] increase in human neuroblastoma-derived SK-N-MC cells, which express Endothelin A receptor. The test is classed as cell-based.

Test [2] concerns the target T2, Endothelin receptor type B (Homo sapiens, UniProt P24530).
T2 sequence (P24530 whole entry): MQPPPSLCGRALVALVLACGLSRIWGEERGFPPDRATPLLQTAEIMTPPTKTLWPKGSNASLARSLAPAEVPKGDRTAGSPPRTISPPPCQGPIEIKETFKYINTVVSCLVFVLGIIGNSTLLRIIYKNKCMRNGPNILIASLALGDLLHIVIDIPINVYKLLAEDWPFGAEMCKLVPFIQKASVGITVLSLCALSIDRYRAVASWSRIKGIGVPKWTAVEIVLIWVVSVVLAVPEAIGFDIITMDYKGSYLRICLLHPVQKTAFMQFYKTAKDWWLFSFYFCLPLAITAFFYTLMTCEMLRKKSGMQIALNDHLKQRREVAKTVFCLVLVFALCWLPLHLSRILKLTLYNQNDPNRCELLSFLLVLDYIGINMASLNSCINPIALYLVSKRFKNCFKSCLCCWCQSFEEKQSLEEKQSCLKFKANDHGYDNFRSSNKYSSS
Briefly: Functional inhibition of ET-1 induced [Ca2+] increase in human Girardi heart (hGH) cells, which express Endothelin B receptor.

The target in test [3] is T3, Endothelin-1 receptor (Sus scrofa, UniProt Q29010).
T3 sequence (Q29010 whole entry): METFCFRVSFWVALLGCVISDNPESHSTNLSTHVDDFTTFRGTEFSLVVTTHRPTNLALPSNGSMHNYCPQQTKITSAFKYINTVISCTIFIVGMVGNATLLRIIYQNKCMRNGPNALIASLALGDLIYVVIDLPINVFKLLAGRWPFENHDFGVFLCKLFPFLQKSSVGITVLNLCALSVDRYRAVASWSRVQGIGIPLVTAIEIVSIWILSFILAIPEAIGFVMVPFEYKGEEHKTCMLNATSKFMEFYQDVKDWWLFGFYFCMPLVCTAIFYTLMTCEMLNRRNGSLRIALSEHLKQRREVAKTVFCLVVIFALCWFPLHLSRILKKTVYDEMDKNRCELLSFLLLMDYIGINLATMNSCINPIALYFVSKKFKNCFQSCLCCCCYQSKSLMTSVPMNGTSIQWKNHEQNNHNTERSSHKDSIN
The experiment in a line: Inhibitory activity against 125 I-labeled ET-1 binding to Endothelin A receptor in porcine aortic smooth muscle membranes.

Test [4] addresses T4, Endothelin receptor type B (Sus scrofa, UniProt P35463).
T4 sequence (P35463 whole entry): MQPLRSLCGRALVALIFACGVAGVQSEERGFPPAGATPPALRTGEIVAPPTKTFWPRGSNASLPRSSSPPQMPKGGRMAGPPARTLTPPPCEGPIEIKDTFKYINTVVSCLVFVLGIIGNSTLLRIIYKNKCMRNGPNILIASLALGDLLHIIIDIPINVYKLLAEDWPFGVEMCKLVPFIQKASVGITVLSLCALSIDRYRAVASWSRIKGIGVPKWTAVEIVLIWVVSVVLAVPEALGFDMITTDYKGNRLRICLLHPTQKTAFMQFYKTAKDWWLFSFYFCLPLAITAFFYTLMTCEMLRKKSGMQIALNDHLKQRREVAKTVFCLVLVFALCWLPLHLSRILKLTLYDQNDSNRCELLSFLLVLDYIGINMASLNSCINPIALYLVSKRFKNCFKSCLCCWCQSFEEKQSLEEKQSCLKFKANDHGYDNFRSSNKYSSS
The experiment in a line: Inhibitory activity against 125 I-labeled ET-1 binding to Endothelin B receptor in porcine cerebellum membranes. Format: cell membranes, Membrane.

For `CCCC[C@@H](NC(=O)[C@@H](Cc1c(Br)[nH]c2ccccc12)NC(=O)[C@@H](NC(=O)N1[C@H](C)CCC[C@@H]1C)C1CC1)C(=O)O`, the pIC50 was 7.80 at Endothelin-1 receptor [1] and 9.10 in test [2]. Turning to `CCCC[C@@H](NC(=O)[C@@H](Cc1cn(C(=O)OC)c2ccccc12)NC(=O)[C@H](CC(C)(C)C)NC(=O)N1[C@H](C)CCC[C@@H]1C)C(=O)O`, the pIC50 at Endothelin-1 receptor [3] was 6.55; in test [4], 8.92. For the molecule `CCCC[C@@H](NC(=O)[C@@H](Cc1c(C#N)[nH]c2ccccc12)NC(=O)[C@@H](NC(=O)N1[C@H](C)CCC[C@@H]1C)C(C)C)C(=O)O`, the pIC50 was 5.21 at Endothelin-1 receptor [1] and 8.40 in test [2]. For the molecule `CC(C)C[C@@H]1NC(=O)[C@@H](C(C)C)NC(=O)C2CCCN2C(=O)[C@@H](CC(=O)O)NC(=O)[C@@H](Cc2c[nH]c3ccccc23)NC1=O` (single isomer, unassigned) [BQ-123], the pIC50 on Endothelin-1 receptor [3] is 7.66.

Usually pIC50 stands for the negative decadic logarithm of the IC50, by convention in mol/L. High values mean a low IC50, low ones a high IC50.

(Values after ChEMBL document CHEMBL1128763, “Synthesis of 2-substituted d-tryptophan-containing peptide derivatives with endothelin receptor antagonist activity” (Bioorg Med Chem Lett, 1995).)
